{"source": "patent US11896035B2", "about": "“Chemical mitigants in animal feed and feed ingredients” (priority 2014, dated 2024)", "system": "PEDv", "test": "PEDv RT-PCR (Ct) in chemically treated, then inoculated feed matrices", "parameters": "species or system Porcine Epidemic Diarrhea virus", "details": "room temperature; for Spray Dried Plasma Average CT Count: spray dried animal plasma", "experimental": "In a third study, experiments were conducted to evaluate the effectiveness of various chemical mitigation strategies on post-processing contamination of PEDv in feed and feed components. Treatments were arranged in a 7×4 factorial with 6 chemical treatments plus a control, and 4 feed matrices. […] The 4 feed matrices included: 1) complete swine diet (complete nursery diet), 2) blood meal, 3) porcine meat and bone meal (MBM), and 4) spray-dried animal plasma. The 4 feed treatments×6 chemical treatments (plus 1 control) equaled 28-1 kg batches. The feed matrices were chemically treated first and then inoculated to represent post-processing contamination. […] There were 3 segregated replicates of each batch for each day of analysis. All samples were stored at room temperature. Untreated control supernant from each of the 4 feed matrixes on day 0 was harvested and aliquots frozen and used as controls for subsequent analysis days Each day these samples were used as laboratory controls to evaluate inter assay variation.\nSamples were analyzed for PEDv by RT-PCR. Analyzed values represent cycle time or cycle threshold (Ct.) before detection, Lower Ct values indicate greater nucleic acid presence, but not necessarily infectivity. Data were analyzed using the GLIMMIX procedure of SAS with fixed effects of chemical treatment, matrix, and time, as well as all interactions."}
{"compound": "[Na+].[O-][Cl+2]([O-])[O-]", "note": "[Sodium chlorate, sodium chlorate]", "values": [{"measurement": "Porcine Blood Meal Average Ct Count", "setting": "day 0", "result": 29}, {"measurement": "Porcine Blood Meal Average Ct Count", "setting": "day 1", "result": 29}, {"measurement": "Porcine Blood Meal Average Ct Count", "setting": "day 3", "result": 31}, {"measurement": "Porcine Blood Meal Average Ct Count", "setting": "day 7", "result": 32}, {"measurement": "Porcine Blood Meal Average Ct Count", "setting": "day 14", "result": 33}, {"measurement": "Porcine Blood Meal Average Ct Count", "setting": "day 21", "result": 36}, {"measurement": "Porcine Blood Meal Average Ct Count", "setting": "day 42", "result": 36}, {"measurement": "Porcine Meat and Bone Meal Average CT Count", "setting": "day 0", "result": 26}, {"measurement": "Porcine Meat and Bone Meal Average CT Count", "setting": "day 1", "result": 25}, {"measurement": "Porcine Meat and Bone Meal Average CT Count", "setting": "day 3", "result": 27}, {"measurement": "Porcine Meat and Bone Meal Average CT Count", "setting": "day 7", "result": 27}, {"measurement": "Porcine Meat and Bone Meal Average CT Count", "setting": "day 14", "result": 28}, {"measurement": "Porcine Meat and Bone Meal Average CT Count", "setting": "day 21", "result": 27}, {"measurement": "Porcine Meat and Bone Meal Average CT Count", "setting": "day 42", "result": 29}, {"measurement": "Spray Dried Plasma Average CT Count", "setting": "day 0", "result": 28}, {"measurement": "Spray Dried Plasma Average CT Count", "setting": "day 1", "result": 26}, {"measurement": "Spray Dried Plasma Average CT Count", "setting": "day 3", "result": 28}, {"measurement": "Spray Dried Plasma Average CT Count", "setting": "day 7", "result": 28}, {"measurement": "Spray Dried Plasma Average CT Count", "setting": "day 14", "result": 28}, {"measurement": "Spray Dried Plasma Average CT Count", "setting": "day 21", "result": 29}, {"measurement": "Spray Dried Plasma Average CT Count", "setting": "day 42", "result": 28}, {"measurement": "Swine Diet Average Ct Count", "setting": "day 0", "result": 28}, {"measurement": "Swine Diet Average Ct Count", "setting": "day 1", "result": 28}, {"measurement": "Swine Diet Average Ct Count", "setting": "day 3", "result": 29}, {"measurement": "Swine Diet Average Ct Count", "setting": "day 7", "result": 30}, {"measurement": "Swine Diet Average Ct Count", "setting": "day 14", "result": 29}, {"measurement": "Swine Diet Average Ct Count", "setting": "day 21", "result": 32}, {"measurement": "Swine Diet Average Ct Count", "setting": "day 42", "result": 32}]}
